ChEMBL document CHEMBL1134339, “New 1-aryl-3-(4-arylpiperazin-1-yl)propane derivatives, with dual action at 5-HT1A serotonin receptors and serotonin transporter, as a new class of antidepressants” (J Med Chem, 2001)

What was measured:
[1] = biological target: T1, 5-hydroxytryptamine receptor 3A (Rattus norvegicus, UniProt P35563); test: Affinity at 5-hydroxytryptamine 3 receptor from rat frontal cortex using [3H]granisetron as radioligand (For granisetron = Ki(nM)=0.3+/-0.01); assay type: tissue-based
T1 sequence (P35563 whole entry): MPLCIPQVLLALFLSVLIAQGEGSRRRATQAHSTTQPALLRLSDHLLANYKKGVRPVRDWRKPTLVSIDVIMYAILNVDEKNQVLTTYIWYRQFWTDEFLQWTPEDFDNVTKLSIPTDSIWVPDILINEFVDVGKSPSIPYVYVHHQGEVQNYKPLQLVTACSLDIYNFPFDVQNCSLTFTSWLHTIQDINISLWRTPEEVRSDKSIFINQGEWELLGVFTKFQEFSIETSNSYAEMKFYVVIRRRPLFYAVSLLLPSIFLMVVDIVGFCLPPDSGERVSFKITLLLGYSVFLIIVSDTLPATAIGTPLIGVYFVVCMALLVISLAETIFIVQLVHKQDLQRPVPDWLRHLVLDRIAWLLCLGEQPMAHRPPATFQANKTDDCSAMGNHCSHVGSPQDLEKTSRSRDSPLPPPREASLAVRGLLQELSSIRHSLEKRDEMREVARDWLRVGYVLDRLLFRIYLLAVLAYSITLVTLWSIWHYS

[2] = tested on: Mus musculus; test: Time-dependent effect on 8-OH-DPAT-induced hypothermia (change in body temperature) after 30 min, in mice at 0.01 mg/kg dose; assay type: functional
[3] = tested on: Mus musculus; test: Antidepressant-like activity in the forced swimming test (FST) in mice at 1 mg/kg dose; Antidepressant like activity; assay type: functional
[4] = biological target: D(2) dopamine receptor (Rattus norvegicus, UniProt P61169); test: Affinity at dopamine D2 receptor from rat striatum using [3H]spiroperidol as radioligand (For haloperidol Ki(nM)= 1.5+/-1.2); assay type: tissue-based
D(2) dopamine receptor, sequence (P61169 whole entry): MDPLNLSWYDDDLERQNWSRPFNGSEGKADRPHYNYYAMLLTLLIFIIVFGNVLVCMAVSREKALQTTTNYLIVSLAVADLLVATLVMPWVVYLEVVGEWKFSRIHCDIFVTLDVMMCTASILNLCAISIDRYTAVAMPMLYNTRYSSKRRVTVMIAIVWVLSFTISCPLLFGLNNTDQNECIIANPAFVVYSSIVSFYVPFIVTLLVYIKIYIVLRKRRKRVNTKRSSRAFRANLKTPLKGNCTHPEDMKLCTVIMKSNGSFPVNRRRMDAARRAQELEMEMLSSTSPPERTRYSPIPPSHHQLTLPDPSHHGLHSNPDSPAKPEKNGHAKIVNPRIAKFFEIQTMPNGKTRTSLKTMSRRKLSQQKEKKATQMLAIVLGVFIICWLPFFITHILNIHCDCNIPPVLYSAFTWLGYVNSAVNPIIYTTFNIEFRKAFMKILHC

[5] = biological target: T2, Adrenergic receptor alpha-2 (Rattus norvegicus, UniProt P22086+P19328+P22909); test: Affinity towards alpha-2 adrenoceptor from rat cortex using [3H]-clonidine as radioligand (For clonidine Ki(nM)= […]+/-[…])
T2 sequence (P22086 whole entry): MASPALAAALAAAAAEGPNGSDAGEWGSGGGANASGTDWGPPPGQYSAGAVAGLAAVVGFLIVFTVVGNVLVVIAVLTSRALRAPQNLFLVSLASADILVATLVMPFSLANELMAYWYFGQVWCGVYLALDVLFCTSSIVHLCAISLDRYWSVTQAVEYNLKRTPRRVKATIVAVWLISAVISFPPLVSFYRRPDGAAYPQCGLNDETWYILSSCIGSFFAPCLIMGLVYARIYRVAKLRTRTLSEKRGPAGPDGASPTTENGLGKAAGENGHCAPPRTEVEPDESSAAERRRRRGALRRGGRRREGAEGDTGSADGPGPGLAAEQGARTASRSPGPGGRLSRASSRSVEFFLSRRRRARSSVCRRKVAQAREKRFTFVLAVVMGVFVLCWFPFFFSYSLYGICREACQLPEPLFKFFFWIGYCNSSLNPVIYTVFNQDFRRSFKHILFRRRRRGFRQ
T2 sequence (P19328 whole entry): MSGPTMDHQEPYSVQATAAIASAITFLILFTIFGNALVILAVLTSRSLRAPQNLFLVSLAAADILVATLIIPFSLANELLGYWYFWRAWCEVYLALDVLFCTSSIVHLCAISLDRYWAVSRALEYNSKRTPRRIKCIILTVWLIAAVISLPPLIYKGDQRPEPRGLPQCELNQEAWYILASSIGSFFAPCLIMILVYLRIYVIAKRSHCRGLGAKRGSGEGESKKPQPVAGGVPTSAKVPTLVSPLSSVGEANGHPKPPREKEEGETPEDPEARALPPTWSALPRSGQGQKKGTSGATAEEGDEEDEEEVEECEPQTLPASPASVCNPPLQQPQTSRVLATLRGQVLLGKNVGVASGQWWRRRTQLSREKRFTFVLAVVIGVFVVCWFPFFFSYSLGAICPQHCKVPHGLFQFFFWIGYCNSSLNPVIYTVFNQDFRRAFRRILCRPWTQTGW
T2 sequence (P22909 whole entry): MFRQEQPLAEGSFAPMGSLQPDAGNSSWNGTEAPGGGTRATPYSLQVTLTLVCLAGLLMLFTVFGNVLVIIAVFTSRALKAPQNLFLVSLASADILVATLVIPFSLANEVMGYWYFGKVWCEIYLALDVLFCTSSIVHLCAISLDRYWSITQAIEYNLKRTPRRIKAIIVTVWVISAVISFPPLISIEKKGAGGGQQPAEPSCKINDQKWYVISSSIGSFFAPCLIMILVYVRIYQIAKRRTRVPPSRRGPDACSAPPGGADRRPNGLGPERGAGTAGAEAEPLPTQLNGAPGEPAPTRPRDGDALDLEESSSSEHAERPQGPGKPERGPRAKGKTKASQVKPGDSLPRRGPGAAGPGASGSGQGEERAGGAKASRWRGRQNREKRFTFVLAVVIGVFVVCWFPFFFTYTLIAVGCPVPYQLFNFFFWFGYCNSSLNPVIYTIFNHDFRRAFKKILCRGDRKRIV

[6] = tested on: Mus musculus; test: Antidepressant-like activity in the forced swimming test (FST) in mice at 0.01 mg/kg dose; Antidepressant like activity; assay type: functional
[7] = biological target: T3, 5-hydroxytryptamine receptor 1A (Homo sapiens) (UniProt P08908); test: Percent increase in the Forskolin-Stimulated cAMP formation, in HeLa cells transfected with the 5-HT 1A receptor at 1 uM concentration; assay type: functional, cell-based
T3 sequence (whole entry): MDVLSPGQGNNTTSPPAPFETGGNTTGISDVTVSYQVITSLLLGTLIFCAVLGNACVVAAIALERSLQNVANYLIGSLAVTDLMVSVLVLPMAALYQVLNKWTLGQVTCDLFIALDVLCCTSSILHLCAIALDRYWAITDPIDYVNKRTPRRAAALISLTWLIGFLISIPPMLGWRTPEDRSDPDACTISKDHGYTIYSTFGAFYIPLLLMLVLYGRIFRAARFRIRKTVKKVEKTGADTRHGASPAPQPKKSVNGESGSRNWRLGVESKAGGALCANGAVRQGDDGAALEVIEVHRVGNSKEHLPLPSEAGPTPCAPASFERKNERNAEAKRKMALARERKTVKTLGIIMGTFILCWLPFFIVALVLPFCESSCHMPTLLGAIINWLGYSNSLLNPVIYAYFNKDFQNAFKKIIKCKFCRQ

[8] = biological target: Muscarinic acetylcholine receptor; test: Affinity at muscarinic receptor from rat cortex using [3H]-QNB as radioligand (For atropine Ki(nM)= 3.5+/-0.3)
[9] = biological target: Adrenergic receptor beta (Rattus norvegicus, UniProt P18090+P10608+P26255)
[10] = tested on: Mus musculus; test: Antidepressant-like activity in the forced swimming test (FST) in mice at 0.001 mg/kg dose; Antidepressant like activity; assay type: functional
[11] = biological target: T1, 5-hydroxytryptamine receptor 3A; test: Affinity at 5-hydroxytryptamine 3 receptor (For granisetron = Ki (nM)=0.3+/-0.01)
[12] = biological target: Muscarinic acetylcholine receptor; test: Affinity at muscarinic receptor, (For atropine Ki(nM)= 3.5+/-0.3); assay type: protein assay
[13] = tested on: Rattus norvegicus; test: Effect on helpless behavior in rats and the number of escape failures was determined in shuttle-box session-3 (SB-3) at 1 mg/kg dose; assay type: functional

For `COc1ccccc1N1CCN(CCC(O)c2csc3ccccc23)CC1` (stereo not given), the Ki [1] was > 5 µM, the Temperature change [2] was -1.3 °C and the Activity [3] was 33%. For the same molecule, the Ki [4] was 0.15 µM, the Ki [5] was 2 µM and the Activity [6] was 70%. For the same molecule, the cAMP increase [7] was 64%, the Ki [8] was > 5 µM and the Ki [9] was 0.75 µM. The Activity [10] was 67%.

In the case of `COc1ccccc1N1CCN(CCC(=O)c2csc3ccccc23)CC1`, the Ki [11] is reported as > 5 µM, the Ki [12] is reported as > 5 µM and the “No. of escape failures” value [13] is reported as <2.8.

For `COc1ccccc1N1CCN(CCC(Oc2cccc3ccccc23)c2ccsc2)CC1` (stereo not given), the Ki [1] was > 5 µM, the Activity [3] was 48% and the Ki [4] was 2.5 µM. For the same molecule, the Ki [5] was 5 µM, the “No. of escape failures” value [13] was 0.5 and the Ki [8] was > 5 µM. For the same molecule, the Ki [9] was > 5 µM.
